US20090220612A1, “HOLLOW-FIBRE-BASED BIOCOMPATIBLE DRUG DELIVERY DEVICE WITH ONE OR MORE LAYERS” (priority 2005, published 2009)

Experiment: Polymer degradation and in vitro 5-FU release from hollow fibres in PBS pH 7.4
Format: physicochemical
Settings: FIG. 30
Method: 0.07 g of each hollow fibre was weighed and immersed in 20 ml of de-ionised water in a screw-topped bottle. These were then placed on an orbital shaker maintained at a temperature of 37° C. The pH of the degradation medium was measured every two days to monitor the rate of generation of acidic byproducts. A Jenway (Model 3051) pH meter was used for this purpose.
In vitro drug release studies were carried out in phosphate buffer saline (PBS) at both room temperature (˜25° C.) and 37° C. PBS solution was applied to keep the degrading system at a constant pH 7.4 value. Every type of polymer fibre was cut into 10 pieces, with 5 cm each. At room temperature, each fibre piece was first sealed at one end with bio-adhesive, and was injected with liquid 5-FU with a syringe pump from the other open end before it was sealed. […] The amount of drug release was measured every 24 hours within the 3 months. The quantitative measurement of the amount of drug released was measured with a UV Spectrometer. A calibration curve was performed as the concentration versus absorbance for the drug in buffer (wavelength of absorption, □=266 nm (5-FU) and λ=298 nm (cisplatin and carboplatin) or atomic absorption spectroscopy) which was plotted in a logarithmic scale gave a straight line. […] The absorbance of the drug was noted. […]

In the case of `O=c1[nH]cc(F)c(=O)[nH]1` [5-FU, fluorouracil], the “effect on degradation and drug release rate of polymer hollow fibres” value is reported as “accelerates the degradation and drug release rate”.
